Like-named read-outs stand apart in the source and are kept apart here.

In patent US20240092739A1, “COMPOUNDS AND METHODS OF USE” (Ferro Therapeutics, Inc, priority 2020, published 2024) one finds IC50 data, which are given here for 33 compounds.

In assay [1] the test system is A431 cells. In words: Cell proliferation (Alamar Blue) assay, A431 cells. The assay is classed as cell-based. Conditions: Homo sapiens, A-431, A431 cells, Alamar Blue. On the procedure: (§1) Cell viability assay was performed to assess the potency of the compounds in human cancer cell lines 786-0 (renal cell carcinoma) and SJSA-1 (osteosarcoma). Additional cell lines, such as pancreatic cancer cell lines (Panc 02.13, BxPC-3, Panc 12, Panc 02.03, Panc 6.03, PSN-1, HPAC, and Capan-1), prostate cancer cell lines (PC-3, DU145, […], NCI-H660, 1PH1 LNCaP, BM-1604, and MDA PCa 2b), etc., can be tested in a similar method.
(§2) Cells (SJSA-1, 786-0 and A431) were seeded (5000 cells/100 μL/well) in 96-well tissue culture plate and incubated at 37° C./500 CO2 for 16-24 hours. The cells were then treated with compounds (25 μL of 5×). The compound concentrations were 10-0.0005 μM prepared in 3-fold serial dilutions with final DMSO concentration of 1%. The plates were then incubated for 24 h at 37° C./[…] in a moist environment. Then Alamar Blue™ reagent (final concentration 1×-12.5 μL) was added to each well and incubated for 1.5 hours at 37° C./500 CO2. The plates were read on fluorescence reader at 540 nm excitation and 590 nm emission wavelengths. The IC50 values were subsequently determined using a sigmoidal dose-response curve (variable slope) in GraphPad Prism® 5 software. Tables A-3 and B-11 show cell proliferation data for exemplary compounds as described herein.
In general terms: The colour change of resazurin is a common sign of viable cells or microbes.

In assay [2] the test system is 786-O cells + Ferrastatin-1. Briefly: GPX4 inhibition assay: cell proliferation (Alamar Blue) in 786-O cells with ferrostatin rescue. Type of assay: cell-based, human. On the procedure: as §2
Studies have shown that lipophilic antioxidants, such as ferrostatin, can rescue cells from GPX4 inhibition-induced ferroptosis. For instance, mesenchymal state GPX4-knockout cells can survive in the presence of ferrostatin, however, when the supply of ferrostatin is terminated, these cells undergo ferroptosis (see, e.g., Viswanathan et al., Nature 547:453-7, 2017). […] Accordingly, the ability of a molecule to induce ferroptotic cancer cell death, and that such ability is admonished by the addition of ferrostatin, is clear indication that the molecule is an GPX4 inhibitor. Cell proliferation data for exemplary compounds with and without ferrostatin can be seen in Table A-3.

Assay [3] relates to 786-O (renal cell carcinoma) cells. In words: Cell proliferation (Alamar Blue) assay, 786-O cells. The assay is classed as cell-based. Conditions: Homo sapiens, 786-0, 786-O cells, Alamar Blue. On the procedure:
as §1, §2

The mark [4] stands for this setting: 24 h compound treatment, read-out: IC50 (μM) A431.
The mark [5] stands for this setting: 786-O cells in presence of Ferrastatin-1 (rescue), read-out: IC50 (μM) 786-O + Ferrastatin-1.
[6] abbreviates: 24 h compound treatment, read-out: IC50 (μM) 786-O.
Setting [7] is: 24 h compound incubation, read-out: Cell proliferation IC50 (μM) A431.
Where [8] appears, read: 786-O cells with Ferrastatin-1 (rescue), read-out: Cell proliferation IC50 (μM) 786-O + Ferrastatin-1.
Where [9] appears, read: 24 h compound incubation, read-out: Cell proliferation IC50 (μM) 786-O.

As for `C#CC(=O)N1[C@@H](CCCC)Cc2cc(OC)ccc2[C@@H]1c1ccc(NC2CCC2)c(Cl)c1` [Compound B-59], the IC50 in assay [1] (setting [4]) was 2.37 µM; in assay [2] (setting [5]), 5.84 µM; in assay [3] (setting [6]), 0.052 µM.

As to `C#CC(=O)N1[C@@H](CCCC)Cc2cc(OC)ncc2[C@H]1c1ccc(NC23CC4CC(CC(C4)C2)C3)cc1` [Compound B-68], the IC50 in assay [1] (setting [4]) was 2.35 µM; in assay [2] (setting [5]), 2.61 µM; in assay [3] (setting [6]), 0.042 µM.

In the case of `C#CC(=O)N1[C@@H](CCCC)Cc2cc(OC)ccc2[C@@H]1c1ccc(NC23CC4CC(CC(C4)C2)C3)c(F)c1` [Compound B-84], the IC50 in assay [1] (setting [4]) amounted to 0.881 µM; in assay [2] (setting [5]), 0.056 µM; in assay [3] (setting [6]), 0.037 µM.

On to `C#CC(=O)N1[C@@H](CCCC)Cc2cc(C(F)F)ccc2[C@@H]1c1ccc(NC23CC4CC(CC(C4)C2)C3)cc1` [Compound B-63], for which the IC50 is 0.727 µM in assay [1] (setting [4]), 0.939 µM in assay [2] (setting [5]) and 0.009 µM in assay [3] (setting [6]).

Consider `C#CC(=O)N1[C@@H](CCCC)Cc2cc(F)ccc2[C@@H]1c1ccc(NC23CC4CC(CC(C4)C2)C3)cc1` [Compound B-40], for which the values for the IC50 in assay [1] (setting [4]) and in assay [3] (setting [6]) were 4.52 µM and 0.006 µM, respectively.

As to `C#CC(=O)N1[C@@H](CCCC)Cc2cc(OC)ccc2[C@H]1c1ccc(NC23CC4CC(CC(C4)C2)C3)cc1` [Compound B-2], the IC50 in assay [1] (setting [4]) was greater than 1 µM; in assay [3] (setting [6]), 0.192 µM.

For `C#CC(=O)N1[C@@H](CCCC)Cc2cc(OC)ccc2[C@@H]1C12CC(F)(C1)C2` [Compound B-5], the IC50 is greater than 1 µM in assay [1] (setting [4]) and 0.145 µM in assay [3] (setting [6]).

For the compound `CCCC[C@H]1Cc2cc(OC)ccc2[C@H](c2ccc(NC34CC5CC(CC(C5)C3)C4)cc2)N1C(=O)C#C[Si](C)(C)C` [Compound A-6, 1-((1S,3S)-1-(4-(((1s,3R)-adamantan-1-yl)amino)phenyl)-3-butyl-6-methoxy-3,4-dihydroisoquinolin-2(1H)-yl)-3-(trimethylsilyl)prop-2-yn-1-one], the results for the IC50 in assay [1] (setting [7]), in assay [2] (setting [8]) and in assay [3] (setting [9]) were greater than 1 µM, greater than 1 µM and 0.021 µM, respectively.

Regarding `C#CC(=O)N1[C@@H](COCC)Cc2cc(OC)ccc2[C@@H]1c1ccc(C#N)cc1` [Compound B-39], the IC50 in assay [1] (setting [4]) was greater than 10 µM; in assay [3] (setting [6]), 0.195 µM.

Turning to `CCCC[C@H]1Cc2cc(OC)ccc2[C@H](c2ccc(NC34CC5CC(CC(C5)C3)C4)c(C#N)c2)N1C(=O)C#C[Si](C)(C)C` [Compound A-15, 2-(((3R,5R,7R)-adamantan-1-yl)amino)-5-((1S,3S)-3-butyl-6-methoxy-2-(3-(trimethylsilyl)propioloyl)-1,2,3,4-tetrahydroisoquinolin-1-yl)benzonitrile], the values for the IC50 in assay [2] (setting [8]) and in assay [3] (setting [9]) were greater than 1 µM and 0.021 µM, respectively.

Turning to `C#CC(=O)N1[C@H](c2ccc(NC34CC5CC(CC(C5)C3)C4)cc2)c2ccc(OC)cc2C[C@@H]1C1CCC1` [Compound B-51], the IC50 in assay [1] (setting [4]) is 4.9 µM; in assay [3] (setting [6]), 0.072 µM.

`C#CC(=O)N1[C@@H](COC)Cc2cc(OC)ccc2[C@H]1c1ccc(NC23CC4CC(CC(C4)C2)C3)cc1` [Compound B-45]: the IC50 in assay [3] (setting [6]) turned out to be 0.047 µM.

For `C#CC(=O)N1[C@@H](CCCC)Cc2cc(OC)ccc2[C@@H]1c1ccccc1` [Compound B-29], the IC50 is 8.73 µM in assay [1] (setting [4]) and 0.037 µM in assay [3] (setting [6]).

As for `C#CC(=O)N1[C@@H](c2ccc(NC34CC5CC(CC(C5)C3)C4)cc2)c2ccc(OC)cc2C[C@@H]1C1CCC1` [Compound B-4], the IC50 in assay [3] (setting [6]) came to 0.016 µM.

On to `C#CC(=O)N1[C@@H](CC2CC2)Cc2cc(OC)ccc2[C@@H]1c1ccc(NC23CC4CC(CC(C4)C2)C3)cc1` [Compound B-50], for which the IC50 in assay [3] (setting [6]) is 0.01 µM.

Regarding `COc1ccc2c(c1)C[C@H](C1CCC1)N(C(=O)C#C[Si](C)(C)C)[C@H]2c1ccc(NC23CC4CC(CC(C4)C2)C3)cc1` [Compound A-7, 1-((1S,3R)-1-(4-(((3R,5R,7R)-adamantan-1-yl)amino)phenyl)-3-cyclobutyl-6-methoxy-3,4-dihydroisoquinolin-2(1H)-yl)-3-(trimethylsilyl)prop-2-yn-1-one], the IC50 is greater than 1 µM in assay [2] (setting [8]) and 0.021 µM in assay [3] (setting [9]).

For the compound `CCC[C@H]1Cc2cc(OC)ccc2[C@H](c2ccc(NC34CC5CC(CC(C5)C3)C4)cc2)N1C(=O)C#C[Si](C)(C)C` [Compound A-3], the IC50 in assay [2] (setting [8]) is greater than 1 µM; in assay [3] (setting [9]), 0.029 µM.

With `C#CC(=O)N1[C@@H](CCCC)Cc2ccc(OC)cc2[C@@H]1c1ccc(NC23CC4CC(CC(C4)C2)C3)cc1` [Compound B-42, 1-((1S,3S)-1-(4-(((3R,5R,7R)-adamantan-1-yl)amino)phenyl)-3-butyl-7-methoxy-3,4-dihydroisoquinolin-2(1H)-yl)prop-2-yn-1-one], the IC50 was 6.58 µM in assay [1] (setting [4]) and 0.0145 µM in assay [3] (setting [6]).

In the case of `C#CC(=O)N1[C@@H](CCCC)Cc2cc(OC)ccc2[C@@H]1c1ccc(N2CCC(F)(F)C2)cc1` [Compound B-14], the IC50 in assay [1] (setting [4]) was greater than 1 µM; in assay [3] (setting [6]), 0.06 µM.

As to `C#CC(=O)N1[C@@H](c2ccc(C#N)cc2)c2ccc(OC)cc2C[C@@H]1C` [Compound B-32, 4-[(1S,3S)-6-methoxy-3-methyl-2-(prop-2-ynoyl)-1,2,3,4-tetrahydroisoquinolin-1-yl]benzonitrile], the IC50 worked out at 3.5 µM in assay [1] (setting [4]) and 0.42 µM in assay [3] (setting [6]).

Regarding `CCCC[C@H]1Cc2cc(OC)ccc2[C@H](c2ccc(NC34CC5CC(CC(C5)C3)C4)c(Cl)c2)N1C(=O)C#C[Si](C)(C)C` [Compound A-46], the IC50 was no less than 10 µM in assay [1] (setting [7]) and 0.31 µM in assay [3] (setting [9]).

For `CCCC[C@H]1Cc2cc(OC)ccc2[C@H](c2ccc(NC34CC5CC(CC(C5)C3)C4)cc2)N1C(=O)C#C[Si](C)(C)CC` [Compound A-33, 1-((1S,3S)-1-(4-(((1s,3R)-adamantan-1-yl)amino)phenyl)-3-butyl-6-methoxy-3,4-dihydroisoquinolin-2(1H)-yl)-3-(ethyldimethylsilyl)prop-2-yn-1-one], the IC50 is greater than 1 µM in assay [2] (setting [8]) and 0.023 µM in assay [3] (setting [9]).

Regarding `C#CC(=O)N1CCc2cc(OC)ccc2C1c1ccccc1` (stereo not shown) [Compound B-24], the IC50 in assay [1] (setting [4]) stood at 3.5 µM; in assay [3] (setting [6]) it was 0.198 µM.

Regarding `C#CC(=O)N1[C@@H](CCCC)Cc2cc(OC)ccc2[C@@H]1c1ccc(C#N)cc1` [Compound B-31], the values for the IC50 in assay [1] (setting [4]) and in assay [3] (setting [6]) were 3.67 µM and 0.016 µM, respectively.

As for `C#CC(=O)N1CCc2cc(OC)ccc2C1c1ccc(F)cc1` (stereo not shown) [Compound B-26], the figures for the IC50 in assay [1] (setting [4]) and in assay [3] (setting [6]) were greater than 10 µM and 0.395 µM, respectively.

In the case of `C#CC(=O)N1[C@@H](CCC)Cc2cc(OC)ccc2[C@H]1c1ccc(NC23CC4CC(CC(C4)C2)C3)cc1` [Compound B-44], the IC50 in assay [1] (setting [4]) is greater than 1 µM; in assay [3] (setting [6]), 0.054 µM.

Turning to `C#CC(=O)N1[C@@H](COC)Cc2cc(OC)ccc2[C@@H]1c1ccc(NC23CC4CC(CC(C4)C2)C3)cc1` [Compound B-41], the IC50 in assay [1] (setting [4]) stood at 3.88 µM; in assay [3] (setting [6]) it was 0.0035 µM.

On to `C#CC(=O)N1[C@@H](CCC)Cc2cc(OC)ccc2[C@@H]1c1ccc(NC23CC4CC(CC(C4)C2)C3)cc1` [Compound B-43], for which the IC50 in assay [1] (setting [4]) worked out at 4.1 µM; in assay [3] (setting [6]) it was 0.006 µM.

Take `C#CC(=O)N1[C@@H](CCCC)Cc2cc(OC)ccc2[C@@H]1c1ccc(NC23CC4CC(CC(C4)C2)C3)c(C#N)c1` [Compound B-8]: the IC50 in assay [3] (setting [6]) stood at 0.021 µM.

Take `CCCC[C@H]1Cc2cc(OC)ccc2[C@H](c2ccc(NC3CCC3)cc2)N1C(=O)C#C[Si](C)(C)C` [Compound A-25, 1-((1S,3S)-3-butyl-1-(4-(cyclobutylamino)phenyl)-6-methoxy-3,4-dihydroisoquinolin-2(1H)-yl)-3-(trimethylsilyl)prop-2-yn-1-one]: the IC50 in assay [2] (setting [8]) was greater than 1 µM; in assay [3] (setting [9]), 0.171 µM.

Turning to `C#CC(=O)N1[C@@H](CCCC)Cc2cc(OC)ccc2[C@H]1C12CC(F)(C1)C2` [Compound B-6], the IC50 in assay [1] (setting [4]) is greater than 1 µM; in assay [3] (setting [6]) it was 0.067 µM.

Consider `C#CC(=O)N1[C@@H](CC2CC2)Cc2cc(OC)ccc2[C@@H]1c1ccc(C#N)cc1` [Compound B-37], for which the IC50 in assay [1] (setting [4]) is greater than 10 µM; in assay [3] (setting [6]), 0.049 µM.

With `C#CC(=O)N1CCc2cc(OC)ccc2C1c1ccc(C#N)cc1` (stereo not shown) [Compound B-28], the results for the IC50 in assay [1] (setting [4]) and in assay [3] (setting [6]) were 7.5 µM and 0.18 µM, respectively.
